Measurements reported in ChEMBL document CHEMBL6078646, “Target Ligand Separation and Identification of Isoforsythiaside as a Histone Lysine-Specific Demethylase 1 Covalent Inhibitor Against Breast Cancer Metastasis” (J Med Chem, 2024).
Blank lines part the entries; values can stand above or below the compound they belong to. Calls of active or inactive are those of the source. The calls are words filed in the database; no cut-off is given here. Residues, ends and D or L forms follow the SMILES beside them. *: point of attachment. Cbz = O=C(OCc1ccccc1)*

Tests used:
[1] = biological target: T1, Lysine-specific histone demethylase 1A (Homo sapiens, UniProt O60341); test: Binding affinity to recombinant LSD1 (unknown origin) at S817 residue by LC-MS/MS analysis
[2] = biological target: T1, Lysine-specific histone demethylase 1A; test: Inhibition of recombinant His-tagged LSD1 (157 to 852 residues) (unknown origin) expressed in Escherichia coli BL21 (DE3) cells using H3K4me2 peptide as substrate incubated for 30 mins by fluorescence microplate reader analysis
MDA-MB-231 [3] = test: Upregulation of RBMS3 protein expression in human MDA-MB-231 cells at 16 uM by Western blotting analysis; format: functional, cell-based
MDA-MB-231 [4] = test: Inhibition of Twist1 production in human MDA-MB-231 cells at 16 uM by Western blotting analysis; format: functional, cell-based
MDA-MB-231 [5] = test: Inhibition of MMP2 production in human MDA-MB-231 cells at 16 uM by Western blotting analysis; format: functional, cell-based
[6] = Retention time of the compound by HPLC-MS/MS analysis; format: physicochemical
MDA-MB-231 [7] = test: Induction of LSD1 degradation in human MDA-MB-231 cells incubated for 12 hrs by Western blotting analysis; format: cell-based
MDA-MB-231 [8] = test: Antitumor activity against human MDA-MB-231 cells expressing luciferase xenografted in female Balb/c nude mouse assessed as increase in body weight at 10 mg/kg, ip administered every 3 days and measured after 33 days; format: functional, organism-based; settings: time 33.0 day
MDA-MB-231 [9] = test: Antimetastatic activity against human MDA-MB-231 cells expressing luciferase xenografted in female Balb/c nude mouse assessed as reduction in lung metastasis at 10 mg/kg, ip administered every 3 days and measured on day 30 by bioluminescence imaging analysis; format: functional, organism-based; settings: time 30.0 day
MDA-MB-231 [10] = test: Antimetastatic activity against human MDA-MB-231 cells expressing luciferase xenografted in female Balb/c nude mouse assessed as reduction in number of metastatic nodules in the lung at 10 mg/kg, ip administered every 3 days and measured after 30 days by H and E staining based histopathological analysis relative to control; format: functional; set-up: scale not given: the % may be the effect or the level left; settings: time 30 day
MDA-MB-231 [11] = test: Antimetastatic activity against human MDA-MB-231 cells expressing luciferase xenografted in female Balb/c nude mouse assessed as smaller metastatic nodules in lung at 10 mg/kg, ip administered every 3 days and measured after 30 days by H and E staining based analysis; format: functional, organism-based; settings: time 30.0 day
MDA-MB-231 [12] = test: Antimetastatic activity against human MDA-MB-231 cells expressing luciferase xenografted in female Balb/c nude mouse assessed as reduction in fluorescence intensity in lungs at 10 mg/kg, ip administered every 3 days and measured on day 15 by bioluminescence imaging analysis relative to control; format: functional; set-up: scale not given: the % may be the effect or the level left; settings: time 15 day

SMILES: C[C@@H]1O[C@H](OC[C@H]2O[C@@H](OCCc3ccc(O)c(O)c3)[C@H](O)[C@@H](OC(=O)CCc3ccc(O)c(O)c3)[C@@H]2O)[C@H](O)[C@H](O)[C@H]1O
Activity [1]: inactive | inhibition [2]: inactive

SMILES: N[C@H]1CC[C@H](N[C@@H]2C[C@H]2c2ccccc2)CC1
AC30 (MDA-MB-231 [3]): Active | inhibition (MDA-MB-231 [4]): Active | inhibition (MDA-MB-231 [5]): Active

SMILES: CC(C)C[C@@H](C=O)NC(=O)[C@H](CC(C)C)NC(=O)[C@H](CC(C)C)NC(=O)OCc1ccccc1 (Cbz-Leu-Leu-Leu-aldehyde)
Activity (MDA-MB-231 [7]): inactive

SMILES: C[C@@H]1O[C@@H](OC[C@H]2O[C@@H](OCCc3ccc(O)c(O)c3)[C@H](O)[C@@H](O)[C@@H]2OC(=O)/C=C/c2ccc(O)c(O)c2)[C@H](O)[C@H](O)[C@H]1O [FORSYTHIASIDE]
IC50 [2]: 8.08 µM | Retention_time [6]: 31.9 min

The next lines start with results.

IC50 [2]: 5.51 µM | Retention_time [6]: 40.6 min
SMILES: COc1ccc([C@@H]2OC[C@H]3[C@@H]2CO[C@@H]3c2ccc(O[C@H]3O[C@H](CO)[C@@H](O)[C@H](O)[C@H]3O)c(OC)c2)cc1OC

IC50 [2]: 3.6 µM | Retention_time [6]: 25.8 min
SMILES: C[C@@H]1O[C@@H](O[C@@H]2[C@@H](O)[C@H](OCCc3ccc(O)c(O)c3)O[C@H](CO)[C@H]2OC(=O)/C=C/c2ccc(O)c(O)c2)[C@H](O)[C@H](O)[C@H]1O [ACETOSIDE]

IC50 [2]: 0.0296 µM
SMILES: CC(=O)O[C@H]1C(=O)[C@@]2(C)[C@H]([C@H](OC(=O)c3ccccc3)[C@]3(O)C[C@H](OC(=O)[C@H](O)[C@@H](NC(=O)c4ccccc4)c4ccccc4)C(C)=C1C3(C)C)[C@]1(OC(C)=O)CO[C@@H]1C[C@@H]2O [PACLITAXEL]
Activity (MDA-MB-231 [8]): Active; Slight Attenuation Of Body Weight Loss Observed | Activity (MDA-MB-231 [9]): Active | Activity (MDA-MB-231 [10]): 55.5% | Activity (MDA-MB-231 [11]): Active | Activity (MDA-MB-231 [12]): 89.6%
